Measured values taken from patent EP0908457B1, “3-(1,2-benzisothiazol- and isoxazol-5-Y1)-2,4(1H,3H)-pyrimidinedione or thione and 3-(1,2-benzisothiazol- and isoxazol-5-y1)-4(3H)-pyrimidinone or thione herbicidal agents” (BASF AKTIENGESELLSCHAFT, priority 1997, dated 1999).

Experiments:
[1] = system: Monochoria vaginalis, Presl.; assay: Preemergence weed control under flooded paddy conditions, MOOVA (Monochoria); format: in vivo; details: flooded paddy; for MOOVA herbicidal rating / herbicidal effect rating, MOOVA / MOOVA herbicidal effect rating: rated three to four weeks after treatment; for MOOVA: herbicidal effect rating 0-9, three to four weeks after treatment; on herbicidal effect rating, MOOVA: meaning of each grade not given here
Cyperus iria = assay: Preemergence weed control under flooded paddy conditions, CYPIR (Rice Flatsedge); format: in vivo; details: flooded paddy; for CYPIR herbicidal rating / herbicidal effect rating, CYPIR / CYPIR herbicidal effect rating: rated three to four weeks after treatment; for CYPIR: herbicidal effect rating 0-9, three to four weeks after treatment; on herbicidal effect rating, CYPIR: meaning of each grade not given here
Sagittaria pygmaea, L. = assay: Preemergence weed control under flooded paddy conditions, SAGPY (Arrowhead (Pygmaea)); format: in vivo; details: flooded paddy; for SAGPY herbicidal rating / herbicidal effect rating, SAGPY / SAGPY herbicidal effect rating: rated three to four weeks after treatment; for SAGPY: herbicidal effect rating 0-9, three to four weeks after treatment; on herbicidal effect rating, SAGPY: meaning of each grade not given here
[2] = system: Oryza sativa, (L.) Tebonnet; assay: Rice tolerance to post-transplant applications under flooded paddy conditions (Example 187), ORYSAT (Rice, Tebonnet); details: for ORYSAT herbicidal rating (rice tolerance) / herbicidal effect rating ORYSAT / ORYSAT herbicidal effect rating: rated three to four weeks after treatment; for ORYSAT: herbicidal effect rating 0-9, three to four weeks after treatment; on herbicidal effect rating ORYSAT: meaning of each grade not given here
[3] = system: Cyperus serotinus, Rottb.; assay: Preemergence weed control under flooded paddy conditions, CYPSE (Flatsedge); format: in vivo; details: for CYPSE herbicidal rating / herbicidal effect rating, CYPSE / CYPSE herbicidal effect rating: rated three to four weeks after treatment; for CYPSE: herbicidal effect rating 0-9, three to four weeks after treatment; on herbicidal effect rating, CYPSE: meaning of each grade not given here
[4] = system: Echinochloa oryzoides (Ard.) Fritsch.; assay: Preemergence weed control under flooded paddy conditions, ECHORC (Watergrass (Calif.)); format: in vivo; details: flooded paddy; for ECHORC herbicidal rating / herbicidal effect rating, ECHORC / ECHORC herbicidal effect rating: rated three to four weeks after treatment; for ECHORC: herbicidal effect rating 0-9, three to four weeks after treatment; on herbicidal effect rating, ECHORC: meaning of each grade not given here
[5] = Rate 0.0320 kg/ha, preemergence
[6] = Rate 0.0620 kg/ha, preemergence
[7] = Rate 0.1250 kg/ha, preemergence
[8] = Rate 0.2500 kg/ha, preemergence
[9] = Rate 0.0320 kg/ha, preemergence weeds
[10] = Rate 0.0620 kg/ha, preemergence weeds
[11] = Rate 0.1250 kg/ha, preemergence weeds
[12] = Rate 0.2500 kg/ha, preemergence weeds
[13] = 0.0320 kg/ha, preemergence weeds
[14] = 0.0620 kg/ha, preemergence weeds
[15] = 0.1250 kg/ha, preemergence weeds
[16] = 0.2500 kg/ha, preemergence weeds

Structure (SMILES): CN(C(=O)c1nsc2ccc(-n3c(=O)cc(C(F)(F)F)n(C)c3=O)cc12)S(=O)(=O)Cc1ccccc1 [Example 494, 1,2-Benzisothiazole-3-carboxamide, N-(benzylsulfonyl)-5-[3,6-dihydro-3-methyl-2,6-dioxo-4-(trifluoromethyl)-1(2H)-pyrimidinyl]-N-methyl-]
- MOOVA herbicidal rating ([1]; 0.0320 kg/ha, preemergence): 4.0
- MOOVA herbicidal rating ([1]; 0.0620 kg/ha, preemergence): 4.0
- MOOVA herbicidal rating ([1]; 0.1250 kg/ha, preemergence): 5.0
- MOOVA herbicidal rating ([1]; 0.2500 kg/ha, preemergence): 6.0
- CYPIR herbicidal rating (Cyperus iria; 0.0320 kg/ha, preemergence): 3.0
- CYPIR herbicidal rating (Cyperus iria; 0.0620 kg/ha, preemergence): 4.0
- CYPIR herbicidal rating (Cyperus iria; 0.1250 kg/ha, preemergence): 5.0
- CYPIR herbicidal rating (Cyperus iria; 0.2500 kg/ha, preemergence): 5.0
- SAGPY herbicidal rating (Sagittaria pygmaea, L.; 0.0320 kg/ha, preemergence): 0.0
- SAGPY herbicidal rating (Sagittaria pygmaea, L.; 0.0620 kg/ha, preemergence): 0.0
- SAGPY herbicidal rating (Sagittaria pygmaea, L.; 0.1250 kg/ha, preemergence): 0.0
- SAGPY herbicidal rating (Sagittaria pygmaea, L.; 0.2500 kg/ha, preemergence): 3.0
- ORYSAT herbicidal rating (rice tolerance) ([2]; 0.0320 kg/ha): 0.0
- ORYSAT herbicidal rating (rice tolerance) ([2]; 0.0620 kg/ha): 0.0
- ORYSAT herbicidal rating (rice tolerance) ([2]; 0.1250 kg/ha): 0.0
- ORYSAT herbicidal rating (rice tolerance) ([2]; 0.2500 kg/ha): 0.0
- CYPSE herbicidal rating ([3]; 0.1250 kg/ha, preemergence): 0.0
- CYPSE herbicidal rating ([3]; 0.2500 kg/ha, preemergence): 3.0
- ECHORC herbicidal rating ([4]; 0.0320 kg/ha, preemergence): 0.0
- ECHORC herbicidal rating ([4]; 0.0620 kg/ha, preemergence): 2.0
- ECHORC herbicidal rating ([4]; 0.1250 kg/ha, preemergence): 3.0
- ECHORC herbicidal rating ([4]; 0.2500 kg/ha, preemergence): 3.0

Structure (SMILES): Cn1c(C(F)(F)F)cc(=O)n(-c2ccc3snc(C(=O)NS(=O)(=O)c4ccccc4)c3c2)c1=O [Example 352, 1,2-Benzisothiazole-3-carboxamide, 5-[3,6-dihydro-3-methyl-2,6-dioxo-4-(trifluoromethyl)-1(2H)-pyrimidinyl]-N-(phenylsulfonyl)-]
- herbicidal effect rating, MOOVA [1, 5]: 6.0
- herbicidal effect rating, MOOVA [1, 6]: 9.0
- herbicidal effect rating, MOOVA [1, 7]: 9.0
- herbicidal effect rating, MOOVA [1, 8]: 9.0
- herbicidal effect rating, CYPIR (Cyperus iria; [5]): 2.0
- herbicidal effect rating, CYPIR (Cyperus iria; [6]): 6.5
- herbicidal effect rating, CYPIR (Cyperus iria; [7]): 7.5
- herbicidal effect rating, CYPIR (Cyperus iria; [8]): 9.0
- herbicidal effect rating, SAGPY (Sagittaria pygmaea, L.; [5]): 2.5
- herbicidal effect rating, SAGPY (Sagittaria pygmaea, L.; [6]): 5.0
- herbicidal effect rating, SAGPY (Sagittaria pygmaea, L.; [7]): 9.0
- herbicidal effect rating, SAGPY (Sagittaria pygmaea, L.; [8]): 9.0
- herbicidal effect rating ORYSAT ([2]; Rate 0.0320 kg/ha): 0.5
- herbicidal effect rating ORYSAT ([2]; Rate 0.0620 kg/ha): 1.0
- herbicidal effect rating ORYSAT ([2]; Rate 0.1250 kg/ha): 2.5
- herbicidal effect rating ORYSAT ([2]; Rate 0.2500 kg/ha): 3.0
- herbicidal effect rating, CYPSE [3, 5]: 0.0
- herbicidal effect rating, CYPSE [3, 6]: 0.0
- herbicidal effect rating, CYPSE [3, 7]: 1.0
- herbicidal effect rating, CYPSE [3, 8]: 0.0
- herbicidal effect rating, ECHORC [4, 5]: 2.5
- herbicidal effect rating, ECHORC [4, 6]: 4.0
- herbicidal effect rating, ECHORC [4, 7]: 6.5
- herbicidal effect rating, ECHORC [4, 8]: 9.0

Structure (SMILES): C#CCOC(=O)COc1cccc(-c2nsc3ccc(-n4c(=O)cc(C(F)(F)F)n(C)c4=O)cc23)c1 [Example 326, Acetic acid, {m-{5-[3,6-dihydro-3-methyl-2,6-dioxo-4-(trifluoromethyl)-1(2H)-pyrimidinyl]-1,2-benzisothiazol-3-yl}phenoxy}-, 2-propynyl ester]
- herbicidal effect rating, MOOVA [1, 9]: 9.0
- herbicidal effect rating, MOOVA [1, 10]: 9.0
- herbicidal effect rating, MOOVA [1, 11]: 9.0
- herbicidal effect rating, MOOVA [1, 12]: 9.0
- herbicidal effect rating, CYPIR (Cyperus iria; [9]): 6.0
- herbicidal effect rating, CYPIR (Cyperus iria; [10]): 7.0
- herbicidal effect rating, CYPIR (Cyperus iria; [11]): 7.0
- herbicidal effect rating, CYPIR (Cyperus iria; [12]): 9.0
- herbicidal effect rating, SAGPY (Sagittaria pygmaea, L.; [9]): 0.0
- herbicidal effect rating, SAGPY (Sagittaria pygmaea, L.; [10]): 1.0
- herbicidal effect rating, SAGPY (Sagittaria pygmaea, L.; [11]): 5.5
- herbicidal effect rating, SAGPY (Sagittaria pygmaea, L.; [12]): 9.0
- herbicidal effect rating ORYSAT ([2]; Rate 0.0320 kg/ha): 5.5
- herbicidal effect rating ORYSAT ([2]; Rate 0.0620 kg/ha): 5.5
- herbicidal effect rating ORYSAT ([2]; Rate 0.1250 kg/ha): 5.5
- herbicidal effect rating ORYSAT ([2]; Rate 0.2500 kg/ha): 5.5
- herbicidal effect rating, CYPSE [3, 9]: 4.0
- herbicidal effect rating, CYPSE [3, 10]: 4.5
- herbicidal effect rating, CYPSE [3, 11]: 4.5
- herbicidal effect rating, CYPSE [3, 12]: 7.5
- herbicidal effect rating, ECHORC [4, 9]: 5.5
- herbicidal effect rating, ECHORC [4, 10]: 8.5
- herbicidal effect rating, ECHORC [4, 11]: 9.0
- herbicidal effect rating, ECHORC [4, 12]: 9.0

Structure (SMILES): CCC(C#N)c1nsc2ccc(-n3c(=O)cc(C(F)(F)F)n(C)c3=O)cc12 (stereo not drawn) [Example 444, 1,2-Benzisothiazole-3-acetonitrile, 5-[3,6-dihydro-3-methyl-2,6-dioxo-4-(trifluoromethyl)-1(2H)-pyrimidinyl]-alpha-ethyl-]
- MOOVA [1, 13]: 8.0
- MOOVA [1, 14]: 9.0
- MOOVA [1, 15]: 9.0
- MOOVA [1, 16]: 9.0
- CYPIR (Cyperus iria; [13]): 7.5
- CYPIR (Cyperus iria; [14]): 8.0
- CYPIR (Cyperus iria; [15]): 9.0
- CYPIR (Cyperus iria; [16]): 9.0
- SAGPY (Sagittaria pygmaea, L.; [13]): 4.5
- SAGPY (Sagittaria pygmaea, L.; [14]): 6.0
- SAGPY (Sagittaria pygmaea, L.; [15]): 7.0
- SAGPY (Sagittaria pygmaea, L.; [16]): 9.0
- ORYSAT ([2]; 0.0320 kg/ha): 4.5
- ORYSAT ([2]; 0.0620 kg/ha): 6.5
- ORYSAT ([2]; 0.1250 kg/ha): 9.0
- ORYSAT ([2]; 0.2500 kg/ha): 8.5
- CYPSE [3, 13]: 3.5
- CYPSE [3, 14]: 9.0
- CYPSE [3, 15]: 9.0
- CYPSE [3, 16]: 9.0
- ECHORC [4, 13]: 3.5
- ECHORC [4, 14]: 6.0
- ECHORC [4, 15]: 8.5
- ECHORC [4, 16]: 9.0

Structure (SMILES): Cc1ccc(OCC(=O)NS(=O)(=O)c2sc(C)nc2C)c(-c2nsc3ccc(-n4c(=O)cc(C(F)(F)F)n(C)c4=O)cc23)c1 [Example 288, Acetamide, 2-{{2-{5-[3,6-dihydro-3-methyl-2,6-dioxo-4-(trifluoromethyl)-1(2H)-pyrimidinyl]-1,2-benzisothiazol-3-yl}-p-tolyl}oxy}-N-[(2,4-dimethylthiazol-5-yl)sulfonyl]-]
- MOOVA herbicidal effect rating [1, 5]: 0.0
- MOOVA herbicidal effect rating [1, 6]: 0.0
- MOOVA herbicidal effect rating [1, 7]: 3.0
- MOOVA herbicidal effect rating [1, 8]: 6.0
- CYPIR herbicidal effect rating (Cyperus iria; [5]): 0.0
- CYPIR herbicidal effect rating (Cyperus iria; [6]): 0.0
- CYPIR herbicidal effect rating (Cyperus iria; [7]): 4.0
- CYPIR herbicidal effect rating (Cyperus iria; [8]): 6.0
- SAGPY herbicidal effect rating (Sagittaria pygmaea, L.; [5]): 0.0
- SAGPY herbicidal effect rating (Sagittaria pygmaea, L.; [6]): 0.0
- SAGPY herbicidal effect rating (Sagittaria pygmaea, L.; [7]): 0.0
- SAGPY herbicidal effect rating (Sagittaria pygmaea, L.; [8]): 0.0
- ORYSAT herbicidal effect rating ([2]; Rate 0.0320 kg/ha): 0.0
- ORYSAT herbicidal effect rating ([2]; Rate 0.0620 kg/ha): 0.0
- ORYSAT herbicidal effect rating ([2]; Rate 0.1250 kg/ha): 1.0
- ORYSAT herbicidal effect rating ([2]; Rate 0.2500 kg/ha): 2.0
- CYPSE herbicidal effect rating [3, 5]: 0.0
- CYPSE herbicidal effect rating [3, 6]: 0.0
- CYPSE herbicidal effect rating [3, 7]: 0.0
- CYPSE herbicidal effect rating [3, 8]: 0.0
- ECHORC herbicidal effect rating [4, 5]: 0.0
- ECHORC herbicidal effect rating [4, 6]: 0.0
- ECHORC herbicidal effect rating [4, 7]: 4.0
- ECHORC herbicidal effect rating [4, 8]: 5.0

Structure (SMILES): Cc1ccc(OCC(=O)O)c(-c2noc3cc(F)c(-n4c(=O)cc(C(F)(F)F)n(C)c4=O)cc23)c1 [Example 425, Acetic acid, {{2-{5-[3,6-dihydro-3-methyl-2,6-dioxo-4-(trifluoromethyl)-1(2H)-pyrimidinyl]-6-fluoro-1,2-benzisoxazol-3-yl}-p-tolyl}oxy}-]
- MOOVA [1, 13]: 6.0
- MOOVA [1, 14]: 7.0
- MOOVA [1, 15]: 9.0
- MOOVA [1, 16]: 9.0
- CYPIR (Cyperus iria; [13]): 0.0
- CYPIR (Cyperus iria; [14]): 0.0
- CYPIR (Cyperus iria; [15]): 6.0
- CYPIR (Cyperus iria; [16]): 9.0
- SAGPY (Sagittaria pygmaea, L.; [13]): 0.0
- SAGPY (Sagittaria pygmaea, L.; [14]): 0.0
- SAGPY (Sagittaria pygmaea, L.; [15]): 3.0
- SAGPY (Sagittaria pygmaea, L.; [16]): 4.0
- ORYSAT ([2]; 0.0320 kg/ha): 4.0
- ORYSAT ([2]; 0.0620 kg/ha): 6.0
- ORYSAT ([2]; 0.1250 kg/ha): 7.0
- ORYSAT ([2]; 0.2500 kg/ha): 8.0
- CYPSE [3, 13]: 0.0
- CYPSE [3, 14]: 3.0
- CYPSE [3, 15]: 3.0
- CYPSE [3, 16]: 3.0
- ECHORC [4, 13]: 6.0
- ECHORC [4, 14]: 9.0
- ECHORC [4, 15]: 9.0
- ECHORC [4, 16]: 9.0
